In brackets after ≈: the same amount, converted by molar mass. Read-outs that look alike come from different tables or passages of the source.
How the values were obtained:
[1] = biological target: urease enzyme (Canavalia ensiformis, UniProt P07374); test: biochemical; assay type: biochemical; conditions: for inhibition at 50 µg/mL: read-out: Percentage inhibition at 50 ug/mL; for inhibition at 100 µg/mL: read-out: Percentage inhibition at 100 ug/mL
Description: Antiurease activity of the synthesized compounds was determined by using the modified phenol-hypochlorite method. Varying concentrations were used to prepare the urease inhibition curve of Thiourea (a known inhibitor of Urease) in the reaction mixture. Phosphate buffer solution of pH 7 containing 1 unit of enzyme was added about 200 µl in the test tube which was followed by the addition of 230 µl of phosphate buffer and 20 µl of thiourea from a scrupulous stock solution for the particular concentration of thiourea in the reaction mixture respectively. Test sample solutions were added instead of thiourea solution in case of test samples. The reaction mixture were mixed and incubated at 25°C for 5 min. 400 µl of urea stock (20 mM) was added in each test tube. In order to allow the action of urease on urea, all the test tubes were incubated at 40°C.
Phenol hypochlorite reagent (1150 µl) was added after 10 min incubation at 40°C. Test tubes were again incubated at 56°C for 25 min. A blue coloured complex was formed in the reaction mixture. The samples were allowed to cool for 5 min and then their absorbance values were measured at 625 nm and the %age inhibition was calculated. Experiment was repeated three times to get the SD values.

[2] = Nitric oxide (NO) scavenging activity (sodium nitropruside / Griess reagent); conditions: for IC50: NO scavenging; for Percentage scavenging activity at 50 ug/ml / Percentage scavenging activity at 100 ug/ml: NO
Description: Solutions of known concentration were prepared by dissolving the synthesized compounds in appropriate solvents. A mixture of sample solution (20 µl), 10 mM sodium nitropruside solution (200 µl) and phosphate buffer of 7.4 pH (1780 µl) was taken in a dry test tube and the mixture was incubated at 37°C for 2 hours. 200 µl Griess reagent (0.3% Sulphanilic acid in glacial acetic acid, 0.1% Naphthyl ethylene diamine HCL (NED): Mixed equal volume of both solutions just before use) was added after the incubation period is over. After 20 min keeping the solution at room temperature, its absorbance at 528 nm was measured. Each sample was analyzed in triplicate. Positive control of any known antioxidant and control of all samples were run in parallel. Use of negative control was to calibrate the instrument. Sample blanks were also prepared in case if the samples were coloured. Correction in the absorbance values was made by subtracting the sample blank reading from the sample reading.

[3] = system: Bacillus subtillus; test: Antibacterial activity, disc diffusion method; assay type: cell-based; conditions: for inhibition at 50 µg/mL / IC50 / inhibition at 100 µg/mL: Bacillus; for inhibition at 50 µg/mL: 50 ug/ml, read-out: Bacillus subtillus 50 ug/ml (percentage inhibition); for inhibition at 100 µg/mL: read-out: Bacillus subtillus 100 ug/ml (percentage inhibition)
Description: (§1) Disc diffusion method was adopted to test the antibacterial activity of synthesized compounds 2a-10 against […] different bacterial strains. Ampiciline was used as positive control to check antibacterial activity of synthesized compounds. The bacterial strains employed were: Escherichia coli, Bacillus subtillus, Shigella flexneri, Staphylococcus aureus, Pseudomonas aeroginosa and Salmonella typhi.
(§2) Disc diffusion method was used for the determination of antibacterial activity. synthetic organic compounds were examined to evaluate their antibacterial potential against four different strains of bacteria i.e. Staphlococcus aureus (Gram + ive), Pseudomonas- aeroginosa (Gram−ive) and Escherichia coli (Gram−ive), Bacillus subtilis (Gram + ive), Salmonella typhi (Gram−ive) and Shigella flexneri (−ive). The synthetic organic compounds were dissolved in an appropriate solvent to get the solution of known concentration (5 µg/µl or 10 µg/µl). In order to prepare discs of different potencies known volume of extract/synthetic organic compound solution was applied on the discs, air dried and used. After preparation of the sterilized nutrient agar and nutrient broth medium, the sterilized nutrient agar medium was poured under aseptic conditions into sterile glass petri dishes/plates. A known volume of bacterial growth culture can also be poured on the surface of agar medium solidified in petri dishes. After inoculation petri plates were kept at room temperature for 15–30 minutes so that the poured medium is adsorbed. All the discs, including test sample, +ive and –ve controls were placed onto the inoculated nutrient agar medium solidified in petri dishes with the help of sterile forceps and incubated the petri plates at 37°C±2°C for 16–24 hours. Zone of inhibition was measured in mm using ordinary scale. Experiment was repeated three times to get the SD values.

[4] = system: Staphylococcus aureus; test: Antibacterial activity, disc diffusion method; assay type: cell-based; conditions: for inhibition at 40 µg/mL / inhibition at 100 µg/mL / IC50: Staphylococcus aureus; for inhibition at 40 µg/mL: read-out: Staphylococcus aureus 40 ug/ml (percentage inhibition); for inhibition at 100 µg/mL: read-out: Staphylococcus aureus 100 ug/ml (percentage inhibition)
Description: as §1, §2

[5] = read-out: Staphylococcus aureus IC50 ug/ml

Sequence of urease enzyme (P07374 whole entry, looked up): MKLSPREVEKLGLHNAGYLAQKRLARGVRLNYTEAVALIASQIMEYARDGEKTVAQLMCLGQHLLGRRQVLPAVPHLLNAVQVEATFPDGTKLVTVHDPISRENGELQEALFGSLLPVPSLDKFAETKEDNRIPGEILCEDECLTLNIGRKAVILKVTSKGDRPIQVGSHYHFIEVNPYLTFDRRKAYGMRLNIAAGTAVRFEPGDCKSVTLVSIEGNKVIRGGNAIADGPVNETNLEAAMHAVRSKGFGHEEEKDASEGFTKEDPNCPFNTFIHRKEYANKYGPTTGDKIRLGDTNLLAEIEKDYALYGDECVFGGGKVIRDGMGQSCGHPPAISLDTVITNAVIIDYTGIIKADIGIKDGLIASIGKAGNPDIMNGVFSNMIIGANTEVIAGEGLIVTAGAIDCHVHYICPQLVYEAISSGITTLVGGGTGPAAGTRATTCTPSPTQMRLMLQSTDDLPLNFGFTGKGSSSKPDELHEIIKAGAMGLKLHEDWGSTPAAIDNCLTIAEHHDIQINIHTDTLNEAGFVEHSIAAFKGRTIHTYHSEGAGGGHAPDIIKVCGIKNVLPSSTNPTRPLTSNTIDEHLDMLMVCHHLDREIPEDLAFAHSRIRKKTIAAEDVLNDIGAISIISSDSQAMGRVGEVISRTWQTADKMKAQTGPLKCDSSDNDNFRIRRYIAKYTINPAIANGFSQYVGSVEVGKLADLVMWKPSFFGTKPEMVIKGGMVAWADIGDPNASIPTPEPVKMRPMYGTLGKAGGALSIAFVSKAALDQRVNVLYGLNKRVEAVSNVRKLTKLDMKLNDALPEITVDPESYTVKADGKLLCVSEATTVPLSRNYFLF

| Compound | IC50 [2] [µg/mL] | Percentage scavenging activity at 50 ug/ml [2] [%] | Percentage scavenging activity at 100 ug/ml [2] [%] | inhibition at 50 µg/mL [3] [%] | inhibition at 40 µg/mL [4] [%] | inhibition at 100 µg/mL [4] [%] | IC50 [1] [µM] | inhibition at 50 µg/mL [1] [%] | inhibition at 100 µg/mL [1] [%] | activity against Bacillus subtillus (in words) [3] | IC50 [4, 5] [µg/mL] | other results |
| --- | --- | --- | --- | --- | --- | --- | --- | --- | --- | --- | --- | --- |
| 2-bromo-4-methyl-N-(prop-2-ynyl)aniline [Compound 8b] | 87.5 | 26.33±0.11 | 57.98±0.21 |  |  |  |  |  |  |  |  | IC50 ([1]; urease): 98.2 µg/mL; Percentage inhibition at 50 ug/mL ([1]; urease, 50 ug/mL): 27±0.45%; Percentage inhibition at 100 ug/mL ([1]; urease, 100 ug/mL): 50.83±0.265%; Bacillus subtillus 100 ug/ml (percentage inhibition) ([3]; 100 ug/ml): 43.8±0.35%; Staphylococcus aureus 40 ug/ml (percentage inhibition) ([4]; 40 ug/ml): 13.39±0.5%; Staphylococcus aureus 100 ug/ml (percentage inhibition) ([4]; 100 ug/ml): 36±0.8% |
| CC1(C)S[C@@H]2[C@H](NC(=O)[C@H](N)c3ccccc3)C(=O)N2[C@H]1C(=O)O [Ampicilline, reference compound] |  |  |  | 9.9 ± 0.51 | 29.9 ± 0.59 | 73 ± 0.51 |  |  |  |  |  | IC50 ([3]; read-out: Bacillus subtillus IC50): 81 µg/mL (≈ 232 µM); IC50 ([4]; read-out: Staphylococcus aureus IC50): 76 µg/mL (≈ 218 µM) |
| C#CCOc1ccc(Cl)cc1Br [Compound 2b, 2-bromo-4-chloro-1-(prop-2-ynyloxy)benzene] | 67.9 (≈ 277 µM) | 39.67±0.09 | 68.44±0.16 | 40.37 ± 0.35 | 31.47 ± 0.19 | 56 ± 0.07 | 264 | 31.5 ± 0.22 | 81.07 ± 0.1 | inactive | 87.7 (≈ 357 µM) | inhibition at 100 µg/mL ([3]; 100 ug/ml): 39.3 ± 0.36% |
| C#CCOc1ccc(C)cc1Br [Compound 2d, 2-bromo-4-methyl-1-(prop-2-ynyloxy)benzene] | 74.1 (≈ 329 µM) | 31.33±0.10 | 69.95±0.15 | 41.5 ± 0.3 | 27.7 ± 0.35 | 52 ± 0.607 | 298 | 30.3 ± 0.6 | 85.89 ± 0.07 | potent antibacterial | 95.9 (≈ 426 µM) | IC50 ([3]; read-out: Bacillus subtillus IC50 ug/ml): 79.9 µg/mL (≈ 355 µM) |
| C#CCOc1ccc(F)cc1Br [Compound 2e, 2-bromo-4-fluoro-1-(prop-2-ynyloxy)benzene] | 68.8 (≈ 300 µM) | 33.33±0.1 | 77.5±0.11 |  | 31.99 ± 0.07 | 58 ± 0.9 | 271 | 40 ± 0.5 | 79.59 ± 0.11 | inactive | 85.1 (≈ 372 µM) |  |
| C#CCOc1ccc(C(C)(C)c2ccc(OCC#C)cc2)cc1 [Compound 4a, 4,4′-(propane-2,2-diyl)bis((prop-2-ynyloxy)benzene)] | 64.4 (≈ 212 µM) | 40±0.09 | 74.53±0.13 |  | 29.1 ± 0.6 | 50 ± 0.2 | 205 | 37 ± 0.34 | 89.42 ± 0.05 | inactive | 97.7 (≈ 321 µM) | inhibition at 100 µg/mL ([3]; 100 ug/ml): 33.9 ± 0.45%; activity against Staphylococcus aureus (in words) [4]: moderate activity |
| C#CCNc1cccc2ccccc12 [Compound 8d, N-(prop-2-ynyl)naphthalen-1-amine] |  | 7.67±0.13 | 38.38±0.32 |  | 5.85 ± 0.8 | 31 ± 0.2 | 506 | 43 ± 0.42 | 51.5 ± 0.26 |  |  | nitric oxide scavenging activity (in words) [2]: did not show any significant results |
| NC(N)=S [Thiourea, reference compound] |  |  |  |  |  |  |  |  |  |  |  | IC50 ([1]; urease): 23.3 µg/mL; Percentage inhibition at 20 ug/ml ([1]; urease, 20 ug/ml (positive control)): 47.1±0.31%; Percentage inhibition at 40 ug/ml ([1]; urease, 40 ug/ml (positive control)): 65±0.01% |
| O=C1O[C@H]([C@@H](O)CO)C(O)=C1O [Vit.C control, Ascorbic acid, reference compound] | 50.43 (≈ 286 µM) | 38.5±0.16 | 84.1±0.12 |  |  |  |  |  |  |  |  |  |

Source: publication PMC4278708, “A Convenient Method for the Synthesis of (Prop-2-Ynyloxy)Benzene Derivatives via Reaction with Propargyl Bromide, Their Optimization, Scope and Biological Evaluation” (PLoS ONE, 2014)
